Measurements from ChEMBL document CHEMBL1287810, “Diamino-1,2,4-triazole derivatives are selective inhibitors of TYK2 and JAK1 over JAK2 and JAK3” (Bioorg Med Chem Lett, 2010).

Assays:
[1] = biological target: T1, Tyrosine-protein kinase JAK3 (Homo sapiens, UniProt P52333)
T1 sequence (P52333 whole entry): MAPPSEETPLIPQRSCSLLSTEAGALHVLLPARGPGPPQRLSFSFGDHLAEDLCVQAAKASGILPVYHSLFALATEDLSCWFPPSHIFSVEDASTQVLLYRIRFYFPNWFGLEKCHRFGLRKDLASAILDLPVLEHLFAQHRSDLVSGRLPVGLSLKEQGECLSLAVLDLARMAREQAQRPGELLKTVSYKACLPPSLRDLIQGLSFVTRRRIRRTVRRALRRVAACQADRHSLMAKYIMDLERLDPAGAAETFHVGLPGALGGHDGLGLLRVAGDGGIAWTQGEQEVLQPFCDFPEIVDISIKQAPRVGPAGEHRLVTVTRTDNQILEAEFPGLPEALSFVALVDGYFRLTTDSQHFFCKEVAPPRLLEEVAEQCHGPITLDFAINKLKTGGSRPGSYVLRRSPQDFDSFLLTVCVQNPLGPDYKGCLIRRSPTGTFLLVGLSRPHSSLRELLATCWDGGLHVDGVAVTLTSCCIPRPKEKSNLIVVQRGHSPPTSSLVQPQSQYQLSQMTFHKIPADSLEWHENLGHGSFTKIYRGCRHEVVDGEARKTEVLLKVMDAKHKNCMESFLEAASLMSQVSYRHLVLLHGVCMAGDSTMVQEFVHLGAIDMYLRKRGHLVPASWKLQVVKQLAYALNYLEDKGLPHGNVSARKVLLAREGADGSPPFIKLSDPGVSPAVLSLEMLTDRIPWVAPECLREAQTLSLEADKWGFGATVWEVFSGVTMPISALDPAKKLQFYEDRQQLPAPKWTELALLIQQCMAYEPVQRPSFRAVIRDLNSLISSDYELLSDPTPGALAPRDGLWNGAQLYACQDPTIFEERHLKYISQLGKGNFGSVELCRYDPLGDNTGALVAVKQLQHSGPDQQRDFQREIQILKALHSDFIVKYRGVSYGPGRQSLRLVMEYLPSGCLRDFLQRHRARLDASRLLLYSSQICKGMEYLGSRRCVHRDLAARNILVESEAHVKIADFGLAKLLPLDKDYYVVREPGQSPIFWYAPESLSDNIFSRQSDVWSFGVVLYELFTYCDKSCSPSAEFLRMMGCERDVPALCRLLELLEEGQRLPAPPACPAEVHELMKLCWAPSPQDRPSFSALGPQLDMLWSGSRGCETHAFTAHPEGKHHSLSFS

[2] = biological target: Tyrosine-protein kinase JAK1 (Homo sapiens, UniProt P23458)
[3] = biological target: Tyrosine-protein kinase JAK2 (Homo sapiens, UniProt O60674)
[4] = biological target: Non-receptor tyrosine-protein kinase TYK2 (Homo sapiens, UniProt P29597)
Sequence of Non-receptor tyrosine-protein kinase TYK2 (P29597 whole entry): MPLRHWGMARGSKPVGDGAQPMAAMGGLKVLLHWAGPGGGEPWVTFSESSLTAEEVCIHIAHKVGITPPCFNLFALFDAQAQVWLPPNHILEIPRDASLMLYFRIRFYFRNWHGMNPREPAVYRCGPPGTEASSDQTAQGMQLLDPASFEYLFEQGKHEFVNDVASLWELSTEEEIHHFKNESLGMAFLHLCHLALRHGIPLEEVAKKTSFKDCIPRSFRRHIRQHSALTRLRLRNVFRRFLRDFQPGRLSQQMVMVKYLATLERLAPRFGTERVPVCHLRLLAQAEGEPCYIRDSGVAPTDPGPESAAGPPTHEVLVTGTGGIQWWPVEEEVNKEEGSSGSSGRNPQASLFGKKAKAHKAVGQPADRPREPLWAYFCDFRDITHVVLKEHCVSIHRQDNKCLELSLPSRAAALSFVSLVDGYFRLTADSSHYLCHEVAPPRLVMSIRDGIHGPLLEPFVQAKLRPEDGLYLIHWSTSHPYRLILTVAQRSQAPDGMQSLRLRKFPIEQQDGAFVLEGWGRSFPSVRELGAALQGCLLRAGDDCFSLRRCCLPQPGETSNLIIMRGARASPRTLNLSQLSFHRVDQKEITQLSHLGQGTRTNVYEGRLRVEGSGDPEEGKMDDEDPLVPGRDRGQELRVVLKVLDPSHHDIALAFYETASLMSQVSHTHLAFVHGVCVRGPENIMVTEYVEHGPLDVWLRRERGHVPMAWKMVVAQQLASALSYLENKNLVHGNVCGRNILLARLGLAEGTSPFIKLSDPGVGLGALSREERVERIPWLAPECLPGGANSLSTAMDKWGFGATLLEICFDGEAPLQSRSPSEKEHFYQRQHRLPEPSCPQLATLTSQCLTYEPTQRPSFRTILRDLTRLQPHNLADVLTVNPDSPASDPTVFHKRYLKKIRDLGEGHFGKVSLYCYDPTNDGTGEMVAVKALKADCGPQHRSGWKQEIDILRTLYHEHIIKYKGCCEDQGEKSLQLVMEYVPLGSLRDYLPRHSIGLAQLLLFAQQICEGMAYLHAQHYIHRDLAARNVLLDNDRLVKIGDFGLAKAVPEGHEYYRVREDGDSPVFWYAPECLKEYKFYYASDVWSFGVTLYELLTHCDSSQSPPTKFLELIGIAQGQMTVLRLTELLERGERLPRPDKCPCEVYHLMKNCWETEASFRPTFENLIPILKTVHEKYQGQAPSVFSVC

Sequence of Tyrosine-protein kinase JAK2 (O60674 whole entry): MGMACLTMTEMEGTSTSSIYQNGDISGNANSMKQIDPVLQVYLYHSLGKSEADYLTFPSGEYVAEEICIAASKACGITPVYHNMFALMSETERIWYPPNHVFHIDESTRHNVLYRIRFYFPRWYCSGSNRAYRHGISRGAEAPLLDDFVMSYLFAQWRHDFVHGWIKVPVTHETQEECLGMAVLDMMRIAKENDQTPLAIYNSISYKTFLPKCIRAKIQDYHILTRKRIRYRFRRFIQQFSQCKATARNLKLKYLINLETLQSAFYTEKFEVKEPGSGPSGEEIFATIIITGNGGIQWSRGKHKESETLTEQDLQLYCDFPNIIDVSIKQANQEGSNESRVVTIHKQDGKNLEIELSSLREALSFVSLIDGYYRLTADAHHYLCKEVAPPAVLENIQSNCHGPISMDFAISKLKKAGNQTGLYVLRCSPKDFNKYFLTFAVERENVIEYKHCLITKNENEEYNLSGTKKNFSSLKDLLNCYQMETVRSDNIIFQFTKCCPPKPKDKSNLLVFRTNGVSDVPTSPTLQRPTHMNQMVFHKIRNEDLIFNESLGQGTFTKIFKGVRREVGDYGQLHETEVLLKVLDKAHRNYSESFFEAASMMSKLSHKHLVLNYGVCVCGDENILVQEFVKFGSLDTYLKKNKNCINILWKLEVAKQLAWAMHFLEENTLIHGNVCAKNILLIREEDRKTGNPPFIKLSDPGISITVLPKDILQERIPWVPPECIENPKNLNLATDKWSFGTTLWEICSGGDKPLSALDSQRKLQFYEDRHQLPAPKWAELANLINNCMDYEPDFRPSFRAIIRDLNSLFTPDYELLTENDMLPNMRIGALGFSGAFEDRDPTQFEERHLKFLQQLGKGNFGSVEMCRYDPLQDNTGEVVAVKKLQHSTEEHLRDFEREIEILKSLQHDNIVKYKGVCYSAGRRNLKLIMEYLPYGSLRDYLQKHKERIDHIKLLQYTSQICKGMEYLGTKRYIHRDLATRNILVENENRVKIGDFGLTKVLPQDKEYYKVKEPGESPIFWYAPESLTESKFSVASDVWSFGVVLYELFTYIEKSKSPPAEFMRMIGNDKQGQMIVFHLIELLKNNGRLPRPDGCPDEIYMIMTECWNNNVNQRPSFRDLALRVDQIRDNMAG
Sequence of Tyrosine-protein kinase JAK1 (P23458 whole entry): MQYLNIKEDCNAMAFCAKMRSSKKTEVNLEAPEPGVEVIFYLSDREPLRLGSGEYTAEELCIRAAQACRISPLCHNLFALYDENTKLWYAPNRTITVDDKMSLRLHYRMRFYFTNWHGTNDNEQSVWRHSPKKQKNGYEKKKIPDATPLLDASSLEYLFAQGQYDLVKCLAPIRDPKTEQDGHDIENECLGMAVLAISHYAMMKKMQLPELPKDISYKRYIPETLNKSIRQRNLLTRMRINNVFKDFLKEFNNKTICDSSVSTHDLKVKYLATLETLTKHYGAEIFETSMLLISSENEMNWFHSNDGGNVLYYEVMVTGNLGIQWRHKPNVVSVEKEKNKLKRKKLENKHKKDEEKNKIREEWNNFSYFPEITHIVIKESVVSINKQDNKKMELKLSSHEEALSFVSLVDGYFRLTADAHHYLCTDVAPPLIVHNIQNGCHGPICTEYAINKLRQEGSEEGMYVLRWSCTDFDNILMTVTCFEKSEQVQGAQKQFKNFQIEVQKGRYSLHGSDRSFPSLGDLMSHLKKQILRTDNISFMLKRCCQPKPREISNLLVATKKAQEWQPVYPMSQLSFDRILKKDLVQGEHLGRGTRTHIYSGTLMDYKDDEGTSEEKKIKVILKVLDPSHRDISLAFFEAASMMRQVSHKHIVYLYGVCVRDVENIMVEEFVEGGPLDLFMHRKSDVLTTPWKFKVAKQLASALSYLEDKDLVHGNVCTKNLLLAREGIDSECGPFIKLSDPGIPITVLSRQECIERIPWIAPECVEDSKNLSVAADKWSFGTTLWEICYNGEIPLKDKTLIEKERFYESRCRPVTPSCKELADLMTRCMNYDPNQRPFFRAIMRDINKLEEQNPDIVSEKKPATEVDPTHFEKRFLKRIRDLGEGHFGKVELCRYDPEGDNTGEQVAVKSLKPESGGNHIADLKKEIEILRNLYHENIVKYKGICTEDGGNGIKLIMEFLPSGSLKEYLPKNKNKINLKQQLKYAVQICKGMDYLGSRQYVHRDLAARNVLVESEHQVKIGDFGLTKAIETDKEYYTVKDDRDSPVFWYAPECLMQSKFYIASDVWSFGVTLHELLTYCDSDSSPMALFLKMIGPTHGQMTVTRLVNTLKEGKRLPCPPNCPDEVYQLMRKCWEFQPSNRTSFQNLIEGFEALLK

IC50 [1] | IC50 [2] | IC50 [3] | IC50 [4] | Structure (SMILES)
> 10 µM | 0.99 µM | > 10 µM | 1.72 µM | CCOC(=O)c1cccc(Nc2nc(N)n(C(=O)c3c(F)cccc3F)n2)c1
2 µM | 0.039 µM | 5 µM | 0.07 µM | CN(C)c1cccc(Nc2nc(N)n(C(=O)c3c(F)cccc3F)n2)c1
> 10 µM | 0.5 µM | > 10 µM | 0.76 µM | COC(=O)c1ccc(Nc2nc(N)n(C(=O)c3c(F)cccc3F)n2)cc1
> 10 µM | ≥ 10 µM | > 10 µM | 6.04 µM | CCOC(=O)c1cccc(Nc2nc(N)n(C(=O)c3ccccc3F)n2)c1
> 10 µM | 0.61 µM | > 10 µM | 0.69 µM | Nc1nc(Nc2cccc(C(=O)O)c2)nn1C(=O)c1c(F)cccc1F
– | – | – | > 10 µM | CCOC(=O)c1cccc(Nc2nc(N)n(C(=O)c3ccc(C(F)(F)F)cc3)n2)c1
5 µM | 0.16 µM | > 10 µM | 0.3 µM | Nc1nc(Nc2cccnc2)nn1C(=O)c1c(F)cccc1F
1.47 µM | 0.045 µM | 2.11 µM | 0.042 µM | Nc1nc(Nc2ccc(C(=O)O)cc2)nn1C(=O)c1c(F)cccc1F
– | – | – | > 10 µM | CCOC(=O)c1cccc(Nc2nnc(N)[nH]2)c1
1.25 µM | 0.019 µM | 2.5 µM | 0.07 µM | Nc1nc(Nc2cccc(S(N)(=O)=O)c2)nn1C(=O)c1c(F)cccc1F
3.25 µM | 0.23 µM | ≥ 10 µM | 0.36 µM | Nc1nc(Nc2ccccc2)nn1C(=O)c1c(F)cccc1F
– | – | – | > 10 µM | CCOC(=O)c1cccc(Nc2nc(N)n(C(=O)c3ccc(N(C)C)cc3)n2)c1
– | – | – | > 10 µM | CCOC(=O)c1cccc(Nc2nc(N)nn2C(=O)c2c(F)cccc2F)c1
– | – | – | > 10 µM | CCOC(=O)c1cccc(Nc2nc(N)n(C(=O)c3ccccc3)n2)c1
0.85 µM | 0.08 µM | 2.5 µM | 0.07 µM | CN(C)c1ccc(Nc2nc(N)n(C(=O)c3c(F)cccc3F)n2)cc1
– | – | – | > 10 µM | CCOC(=O)c1cccc(Nc2nc(N)n(C(=O)c3ccco3)n2)c1
